Test results as given in patent publication US9725432B2, “Pyrimidine derivatives for the treatment of bacterial diseases” (JANSSEN R&D IRELAND, priority 2012, dated 2017).
Values after ≈ are worked out from the molar mass of the structure shown.

Legend:
Staphylococcus aureus = assay: MIC determination of compounds on ECO/PAE/STA in microplates; format: cell-based; conditions: lowest concentration with no growth (90% inhibition of growth), 18-20 hours at 37° C., visual, strain not given

SMILES | melting point [°C] | MIC90 (Staphylococcus aureus) [µg/mL]
CC(C)(C#N)CN1CCC(c2nc(-c3ccncc3)ncc2-c2cccc(C#N)c2)CC1 [Compound 75] | 79 to 87 | 0.5 (≈ 1.18 µM)
COc1cccc(-c2cnc(-c3ccc(F)cc3)nc2C2CCN(CC(C)(C)C#N)CC2)c1 [Compound 78] | 119 | 0.125 (≈ 0.281 µM)
CC(C)(C)C(=O)N1CCC(c2nc(-c3ccc(F)cc3)ncc2-c2cccc(C#N)c2)CC1 [Compound 77] | 75 to 80 | 0.25 (≈ 0.565 µM)
N#Cc1ccc(-c2ncc(-c3cccc(C#N)c3)c(C3CCN(CC(F)(F)F)CC3)n2)cc1 [Compound 84] | 249 to 251 | 0.125 (≈ 0.279 µM)

The next lines start with the values.

melting point [°C] | MIC90 (Staphylococcus aureus) [µg/mL] | SMILES
207 | 0.125 (≈ 0.277 µM) | COc1cccc(-c2cnc(-c3ccc(C#N)cc3)nc2C2CCN(CC(C)(C)C#N)CC2)c1 [Compound 86]
157 to 158 | 0.125 (≈ 0.284 µM) | N#Cc1cccc(-c2cnc(-c3ccc(F)cc3)nc2C2CCN(CC(F)(F)F)CC2)c1 [Compound 76]
